From patent US8541442B2, “Indole derivatives as anticancer agents” (Janssen Pharmaceutica N.V., priority 2009, dated 2013)

Tests used:
[1] = tested on: colorectal cancer cell line HCT116; experiment: Alamar Blue cell proliferation assay, HCT116; assay type: cell-based; conditions: HCT116 cells
Method: (§1) For experiments in 384 wells plates the cells were seeded at a density of 5×10^3 cells/ml in Falcon 384-well culture plates (Life Technologies, Merelbeke, Belgium), black with clear bottom, in 45 μl culture medium. Cells were allowed to adhere to plastic for 24 hr. The tested compound was pre-diluted (1/50 in culture medium) and 5 μl pre-diluted compound was added to the wells. Following 4-day incubation, 10 μl of the Alamar Blue solution was added to each well and the cells were further incubated for 5 hrs (A2780) at 37° C. The fluorescence intensity was measured for each well with a Fluorescence plate reader (Fluorskan, Labsystems, 540 nm excitation and 590 nm emission)
(§2) The antiproliferative activity was calculated as percentage of remaining viable cells in treated versus control (untreated cells) conditions. Within an experiment, the result for each experimental condition is the mean of 3 replicate wells. When appropriate, the experiments were repeated to establish full concentration-response curves. When appropriate, IC50-values (concentration of the drug, needed to reduce cell growth to 50% of the control) were computed using probit analysis for graded data (Finney, D. J., Probit Analyses, 2nd Ed. Chapter 10, Graded Responses, Cambridge University Press, Cambridge 1962). Herein the effects of test compounds are expressed as pIC50 (the negative log value of the IC50-value (M)) (see Table 5A).
(§3) Compounds were also tested according to the above protocol but using other cell lines: colorectal cancer cell line HCT116, non-small cell lung cancer cell line H1299, human prostate cancer cell line DU145.

[2] = tested on: human prostate cancer cell line DU145; experiment: Alamar Blue cell proliferation assay, DU145; assay type: cell-based; conditions: DU145 cells
Method: as §1, §2, §3

p53 in A2780 cells = experiment: p53 ELISA (preservation of p53 in A2780 cells); assay type: cell-based, human; conditions: 16 hours treatment
Method: The capacity of the present compounds to preserve p53 in A2780 cells was measured with the p53 enzyme linked immunosorbent assay. The p53 assay is a “sandwich” enzyme immunoassay employing two polyclonal antibodies. A polyclonal antibody, specific for the p53 protein, has been immobilized onto the surface of the plastic wells. Any p53 present in the sample to be assayed will bind to the capture antibody. The biotinylated detector polyclonal antibody also recognizes p53 protein, and will bind to any p53, which has been retained by the capture antibody. The detector antibody, in turn, is bond by horseradish peroxidase-conjugated streptavidin. The horseradish peroxidase catalyses the conversion of the chromogenic substrate o-phenylene diamine, the intensity of which is proportional to the amount of p53 protein bond to the plate. The colored reaction product is quantified using a spectrophotometer. Quantitation is achieved by the construction of a standard curve using known concentrations of purified recombinant HIS tagged p53 protein (see example C.1.).
A2780 cells (ATCC) were cultivated in RPMI 1640 supplemented with 10% fetal calf serum (FCS), 2 mM L-glutamine and gentamycin at 37° C. in a humidified incubator with 5% CO2.
A2780 cells were seeded at 20.000 cells per well in a 96 well plate, cultured for 24 hours and treated with compound for 16 hours at 37° C. in a humidified incubator. After incubation, the cells were washed once with phosphate-buffered saline and 30 μl, per well, low salt RIPA buffer (20 mM tris, pH7.0, 0.5 mM EDTA, 1% Nonidet P40, 0.5% DOC, 0.05% SDS, 1 mM PMSF, 1 μg/ml aprotinin and 0.5 μ/ml leupeptin) was added. Plates were placed on ice for 30 minutes to complete the lysis. p53 protein was detected in de lysates by using the sandwich ELISA, described below.
High binding polystyrene EIA/RIA 96 well plates (Costar 9018) were coated with the capture antibody pAb1801 (Abcam ab28-100) at a concentration of 1 μg/ml in coating buffer (0.1 M NaHCO3 pH8.2), 50 μl per well. The antibody was allowed to adhere overnight at 4° C. Coated plates were washed once with phosphate-buffered saline (PBS)/0.05% Tween 20 and 300 μl of blocking buffer (PBS, 1% bovine serum albumins (BSA)) was added, for an incubation period of 2 hours at room temperature. Dilutions of purified recombinant HIS tagged p53 protein, ranging from 3-200 ng/ml, were made in blocking buffer and used as standards.
Plates were washed twice with PBS/0.05% Tween 20 and blocking buffer or standards were added at 80 μl/well. To the standards, 20 μl of lysis buffer was added. The samples were added to the other wells at 20 μl lysate/well. After an overnight incubation at 4° C., plates were washed twice with PBS/0.05% Tween 20. Aliquots of 100 μl secondary polyclonal antibody p53(FL-393) (Tebubio, sc-6243) at a concentration of 1 μg/ml in blocking buffer were added to each well and allowed to adhere for 2 hours at room temperature. Plates were washed three times with PBS/0.05% Tween 20. Detection antibody anti-rabbit HRP (sc-2004, Tebubio) at 0.04 μg/ml in PBS/1% BSA was added and incubated for 1 hour at room temperature. Plates were washed three times with PBS/0.05% Tween 20 and 100 μl of substrate buffer was added (substrate buffer was prepared shortly before use by adding 1 tablet of 10 mg o-phenylene diamine (OPD) from Sigma and 125 μl 3% H2O2 to 25 ml OPD buffer: 35 mM citric acid, 66 mM Na2HPO4, pH5.6). After 5 to 10 minutes, colour reaction was stopped by adding 50 μl stop buffer (1 M H2SO4) per well. The absorbance at dual wavelengths of 490/655 nm was measured using a Biorad micro plate reader and the results were then analyzed.
For each experiment, controls (containing no drug) and a blank incubation (containing no cells or drugs) were run in parallel. The blank value was subtracted from all control and sample values. For each sample, the value of p53 (in absorbance units) was expressed as the percentage of the value for p53 present in the control. […]

SMILES | HCT116 cell proliferation inhibition pIC50 [1] | DU145 cell proliferation inhibition pIC50 [2] | p53-elisa LAD (lowest dose giving at least 140% of the value for p53 present in the control) (p53 in A2780 cells)
Cc1cc(Nc2ccnc3c2CCC3(C)O)ccc1NCCc1c[nH]c2c(C(C)(C)O)cccc12 (single isomer, unassigned) [Compound 26] | 7.26 | 6.18 | 0.10 µM
COC1CCc2c(Nc3ccc(NCCc4c[nH]c5c(C(C)(C)O)cccc45)c(C)c3)ccnc21 (single isomer, unassigned) [Compound 29] | 7.37 | 6.58 | 0.03 µM
